Series [1] deals with human osteosarcoma cells (MG-63). Briefly: Assessment of cytotoxicity by SRB assay, MG-63. The class given is cell-based. Conditions: osteosarcoma (MG-63) cells, 72 h, 0.01 μM to 100 μM. On the procedure:
(§1) The human prostate cancer cells (PC3) and human osteosarcoma cells (MG-63) were obtained from Nawah Scientific Inc. (Mokatam, Cairo, Egypt) and cultured in DMEM (Dulbecco's modified eagle's medium), Gibco, USA, supplemented with fetal bovine serum (FBS) at a concentration of 10% and 100 U/mL of penicillin and streptomycin (PS). The Cells were incubated at 37° C. in a humidified environment that contained 5% CO2.
(§2) Cells were seeded in 96-well plates as aliquots of 100 μL cell suspension and incubated in a complete media for 24 h. afterward, cells were treated with N′-(1-naphthoyloxy)-2-(benzo[d]thiazol-2-yl)acetimidamide at diverse concentrations ranging from 0.01 μM to 100 μM for 72 h. Then, cells were fixed at 4° C. for one hour with 150 μL of 10% trichloroacetic acid (TCA). After washing the cells five times with distilled water, 70 μL of sulforhodamine (SRB) solution (0.4% w/v) was added and incubated for 10 min at room temperature in a dark place. […] Then, 150 μL of Tris pH 10.5 (10 mM) was added, and the absorbance was measured at 540 nm using a BMG LABTECH®-FLUOstar Omega microplate reader (Ortenberg, Germany). Half maximal inhibitory concentrations (IC50) values were calculated for each experiment using GraphPad Prism 6 software. […]
(§3) The inhibition was calculated using the following equation: Inhibition %=100−Average Viability
A general note: In SRB staining, fixed cells bind dye roughly in proportion to their protein.

The target of another series is Bovine Serum Albumin (Bos taurus, UniProt P02769). Briefly: Bovine Serum Albumin Assay (BSA), inhibition of protein denaturation. In kind it is biochemical. The conditions noted are these: BSA 0.4% w/v, pH 6.4, 72° C. for 10 minutes, 20-100 μg/mL, turbidity at 660 nm. On the procedure: In vitro-inflammatory activities of the tested samples were determined using a modified method of the BSA assay reported by Williams et al. BSA solution (0.4%, w/v) was prepared in Tris Buffered Saline. The pH was adjusted to 6.4 with glacial acetic acid. Different dilutions of 20, 40, 60, 80, and 100 μg/mL of the stock solutions were added to test tubes containing 1 mL of 0.4%, w/v BSA buffer solution. Both negative (solvent) and positive (aspirin) controls were assayed in a similar manner. The solutions were then heated in a water bath at 72° C. for 10 minutes and cooled for 20 minutes under laboratory conditions. The turbidity of the solutions (level of protein precipitation) was measured at 660 nm in Spectrophotometer (V-770 UV-Visible/NIR Spectrophotometer).
Bovine Serum Albumin, sequence (P02769 25-607): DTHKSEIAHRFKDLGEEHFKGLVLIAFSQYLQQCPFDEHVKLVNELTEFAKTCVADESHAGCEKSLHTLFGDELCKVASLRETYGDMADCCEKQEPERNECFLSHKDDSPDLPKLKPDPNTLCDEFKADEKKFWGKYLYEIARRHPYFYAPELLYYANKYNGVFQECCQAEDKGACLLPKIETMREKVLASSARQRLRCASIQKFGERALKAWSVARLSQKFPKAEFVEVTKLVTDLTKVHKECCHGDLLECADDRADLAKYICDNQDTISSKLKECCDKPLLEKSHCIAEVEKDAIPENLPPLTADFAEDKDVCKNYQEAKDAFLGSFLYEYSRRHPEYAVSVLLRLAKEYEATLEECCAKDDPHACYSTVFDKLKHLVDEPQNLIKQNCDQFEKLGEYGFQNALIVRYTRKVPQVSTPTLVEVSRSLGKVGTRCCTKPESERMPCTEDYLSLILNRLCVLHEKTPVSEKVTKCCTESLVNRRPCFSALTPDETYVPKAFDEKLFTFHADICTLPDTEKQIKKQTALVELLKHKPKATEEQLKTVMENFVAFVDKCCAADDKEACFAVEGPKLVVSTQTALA
The percentage inhibition of precipitation (protein denaturation) was determined relative to the negative control using the following equation:
[formula] % Anti-Denaturation Activity=% Inhibition of Protein Denaturation=% Anti-inflammatory Activity

Series [2] has as its system human prostate cancer cells (PC3). Briefly: Assessment of cytotoxicity by SRB assay, PC3. In kind it is cell-based. Conditions: androgen-independent metastatic human prostate cancer cells (PC3), 72 h, 0.01 μM to 100 μM. The protocol: as §1, §2, §3

Experimental findings from patent publication US11964970B1, “7-(4-((5-(3-bromobenzylideneamino)-2-thioxo-1,3,4-thiadiazol-3(2H)-yl)methyl)piperazin-1-yl)-1-cyclopropyl-6-fluoro-4-oxo-1,4-dihydroquinoline-3-carboxylic acid as an anti-inflammatory and anticancer compound” (KING FAISAL UNIVERSITY, priority 2023, dated 2024) are described below.

A word on the melting point: it is the temperature, or range, at which the solid turns liquid.

Each structure is given as a SMILES string.

On to `O=C(O)c1cn(C2CC2)c2cc(N3CCN(Cn4nc(/N=C/c5cccc(Br)c5)sc4=S)CC3)c(F)cc2c1=O` [7-(4-((5-(3-bromobenzylideneamino)-2-thioxo-1,3,4-thiadiazol-3(2H)-yl)methyl)piperazin-1-yl)-1-cyclopropyl-6-fluoro-4-oxo-1,4-dihydroquinoline-3-carboxylic acid], for which the melting point was 251 to 253 °C. Also, in series [1], the “antiproliferative activity against MG-63 cells” value was “excellent antiproliferative activities”. The “in vitro anti-inflammatory activity (inhibition of protein denaturation)” value at Bovine Serum Albumin is listed as “considerable anti-inflammatory effect”. In addition, in series [2], the “antiproliferative activity against PC3 cells” value is on record as “excellent antiproliferative activities”.
